The results in this text go back to US9453837B2, “Grafted dinuclear metal complexes, and use thereof as cellular microparticle sensors” (CENTRE NATIONAL DE LA RECHERCHE SCIENTIFIQUE (CNRS), priority 2011, dated 2016).

In the test the test system is microparticles derived from the activation of the cell culture of HMEC1 human microvascular endothelial cells by TNF-α. As to the kind of experiment: Colorimetric assay of cellular microparticles by immobilisation of the complex on a microtiter plate (sensitivity study). It counts as binding. The settings on record: complex immobilised on polyglutaraldehyde-activated PVC plate; anti-CD105 antibody, peroxidase secondary antibody, ABTS; FIG. 1. How it is done:
a) Reagents: • Glutaraldehyde 25% • Ethanolamine 16.5 M • Bicarbonate buffer (Na Bic), at pH 9.5, 1 M, to be made only by titration of a solution of NaH2CO3 (pH 8.3) with a solution of Na2CO3 at pH 11, 6. • HEPES buffer, 10 mM pH 7.4; 0.15 M NaCl • (hBPMP/Zinc)-C6H2, 150 μM
b) Protocols: • Polymerisation of glutaraldehyde: • 50 ml of a solution of 2.5% glutaraldehyde is prepared in 0.1 M Na Bic, then the mixture is placed in a sealed vial at 37° C. for 2 hours. • Adsorption of polyglutaraldehyde on the surface of polyvinyl chloride: • A microtiter plate with 96 wells is used. • 100 μL of 2.5% glutaraldehyde is deposited in each well and left for 2 hours at 22° C. The polyglutaraldehyde is removed and the surface is rinsed 3 times with water. • Immobilisation of the complex [(Zn2)(BPMP-C6H2)(μ-OH)].(ClO4)2 • The complex in 0.1 M HEPES, pH 8.2 is immobilised on the surface of the polyvinyl chloride plate for 24 hours at +22° C.: • The free aldehyde groups are saturated with 0.3 M ethanolamine by incubating the surface with this solution for 2 hours at 22° C., then the ethanolamine is eliminated by washing with water and then washing 3 times in 10 mM HEPES at pH 7.4, 0.15 M NaCl. […]
The reading is performed by means of a spectrophotometer. […]

With “[μ-[6-amino-N-(3,5-bis((bis(2-pyridylmethyl)amino)methyl)-4-hydroxybenzyl)hexanamide]]-μ-hydroxo, dizinc, diperchlorate [Example 4]”, the “signal (initial velocity Vi of peroxidase substrate degradation) based on the quantity of microparticles” value is “specific dose-response”.
